Experimental data published in US20020147136A1, “Compounds for targeting endothelial cells, compositions containing the same and methods for their use” (priority 2000, published 2002).
Residues, ends and D or L forms follow the SMILES beside them.

Key:
HAEC [1] = assay: TKPPR-bead binding to endothelial cells under flow; assay type: cell-based, human; conditions: flow 1.91 mL/min, 37° C.
Experimental: Circular 40 mm diameter glass coverslips (Bioptechs, Cat No. 40-1313-0319) were first derivative by dipping in 3-aminopropyltriethoxysilane (Pierce, Cat No. 80370ZZ), 20% in acetone (HPLC grade, Sigma Aldrich Cat No. 27,072-5), rinsed in acetone, and air-dried. After autoclaving, the derivatized coverslips were placed into 60 mm round, sterile culture dishes, one coverslip per dish. Five mL of a Collagen I solution (Becton Dickinson, Cat No. 40236), 41.6 μg/mL in 20 mM acetic acid (adjusted to pH 6.7 with NaOH), was added to each coverslip-containing dish. After 15 min, 0.25 mL of 11.5 mg/mL bis(sulfosuccinimidyl) suberate (Pierce, Cat No. 21580ZZ) was added to each dish and mixed in by swirling. After a 105-minute incubation, the dishes were drained and 5 mL of sterile TBS (20 mM Tris-HCl, pH 7.5, 140 mM NaCl) was added to each dish. […]
Coverslips containing confluent HAEC were mounted into a Bioptechs FCS2 parallel plate flow cell mounted on an Olympus IMT-2 inverted microscope. […] Wall shear stress T, in dynes/cm^2, was calculated using the equation (Lawrence et al., Blood 75:227-237, 1990): [formula]
Bead binding of equal numbers of red fluorescent beads conjugated with TKPPR and green fluorescent beads conjugated with glycine was monitored after increasing lengths of perfusion and variable lengths of subsequent washing with the same solution lacking microspheres.

HAEC [2] = assay: Inhibition of TKPPR-bubble binding to HAEC in static culture by competing agents; assay type: cell-based, human; conditions: for inhibition of bubble binding: 10 μM free TKPPR; for Bubbles Bound (average of duplicate): 1% BRU-114 bubbles
Experimental: Vials of the compositions of example 5 and of example 6 may be reconstituted with 5 mL of sterile saline, injected using a 20-guage 1.5 inch needle. Bubbles may be then formed within the vials by shaking by hand vigorously for 30 seconds. 1 to 5 mL of the bubble formulation may be removed from each vial and diluted with 3 volumes of D-PBS (without calcium or magnesium) within 1 hour of use.
Chamber slides containing confluent HAEC may be drained of culture medium, which was immediately replaced with one of the final bubble solutions prepared above. The wells may be slightly overfilled such that the liquid meniscus protrudes slightly above the plastic well-forming scaffold of the slide. Bubble solutions may be only added to alternate wells to minimize liquid cross-talk. The wells may be sealed with a piece of Parafilm and the slide incubated 20 minutes, inverted (according to Klibanov A. L., Advanced drug Delivery Reviews, 37, 1999, 139-157) to allow the bubbles to rise and make contact with the cells, after which the solutions may be poured off. Weakly associated bubbles may be removed by washing each well twice with 0.5 mL of D-PBS, swirling gently each time before pouring off. Additional D-PBS (0.5 mL) may be added to wells after the washes to keep the cells submerged until microscopic evaluation.
Composition I of Example 5 was repeated exactly as described except that 0.5 mg DPPE-GTKPPR was added (instead of 2.5 mg) yielding compositions with 1% DPPE-GTKPPR. Vials of this composition as well as that of composition I ofExample 5 (5% DPPE-GTKPPR) were reconstituted with 5 mL of sterile saline, injected using a 20-guage 1.5 inch needle. Bubbles were then formed within the vials by shaking by hand vigorously for 30 seconds. 1 to 5 mL of the bubble formulation was removed from each vial and diluted with 3 volumes of D-PBS (without calcium or magnesium) within 1 hour of use.
Chamber slides containing confluent HAEC were drained of culture medium, which was immediately replaced with one of the final bubble solutions prepared above. The wells were slightly overfilled such that the liquid meniscus protruded slightly above the plastic well-forming scaffold of the slide. Bubble solutions were only added to alternate wells to minimize liquid cross-talk. The wells were sealed with a piece of Parafilm and the slide was incubated 20 minutes, inverted to allow the bubbles to rise and make contact with the cells, after which the solutions were poured off. Weakly associated bubbles were removed by washing each well twice with 0.5 mL of D-PBS, swirling gently each time pouring off. Additional D-PBS (0.5 mL) was added to wells after the washes to keep the cells submerged until microscopic evaluation.
Assays were performed as described for Example 7 using microbubble compositions containing 2% BRU-114 (Composition I of Example 5) as a % of total phospholipid in the composition.
Compositions were reconstituted and assays were performed as described in Example 7 using microbubble compositions containing 1% BRU-114 (Composition I of Example 5) as a % of total phospholipid in the composition.
Assays were performed as described for Example 7 using microbubble compositions containing 2% BRU-114 (as a % of total phospholipid in the composition).

[3] = test system: Human Umbilical Vein Endothelial Cells (HUVECS)
Experimental: The ability of compositions comprising a TKPPR monomer and a TKPPR multimer to inhibit ^125I-VEGF binding to endothelial cells was evaluated using HUVECs.

## CC(O)C(N)C(=O)NC(CCCCN)C(=O)N1CCCC1C(=O)N1CCCC1C(=O)NC(CCCNC(=N)N)C(=O)O [TKPPR, L-Arginine, L-threonyl-L-lysyl-L-prolyl-L-prolyl] (H-TKPPR-OH; configuration not given here)
HAEC [1]
  Beads bound at 1.53 dynes/cm^2: 86
HAEC [2]; 1% composition bubbles
  inhibition of bubble binding: 82.7%
HAEC [2]; 5% composition bubbles
  inhibition of bubble binding: no inhibition
HAEC [2]; Example 7, 10 to 100 μM free TKPPR peptide
  block of bubble association with HAEC: blocked
HAEC [2]; competitor 5 microM
  Bubbles Bound (average of duplicate): 790
HAEC [2]; competitor 10 microM
  Bubbles Bound (average of duplicate): 528
HAEC [2]; competitor 25 microM
  Bubbles Bound (average of duplicate): 106
HAEC [2]; competitor 25 microM, 2% BRU-114 bubbles
  Bubbles Bound % of control binding: 16%
HAEC [2]; competitor 50 microM
  Bubbles Bound (average of duplicate): 56
HAEC [2]; competitor 100 microM
  Bubbles Bound (average of duplicate): 17
HAEC [2]; free TKPPR 5 μM, 1% composition bubbles
  Average % Inhibition of bubble binding: 45.7%
HAEC [2]; free TKPPR 10 μM, 1% composition bubbles
  Average % Inhibition of bubble binding: 79.6%
HAEC [2]; free TKPPR 25 μM, 1% composition bubbles
  Average % Inhibition of bubble binding: 82.0%
HAEC [2]; free TKPPR 50 μM, 1% composition bubbles
  Average % Inhibition of bubble binding: 92.7%
HAEC [2]; free TKPPR 100 μM, 1% composition bubbles
  Average % Inhibition of bubble binding: 93.7%
HAEC [2]; free TKPPR 100 μM, 5% bubbles (Composition I of Example 5)
  HAEC bubbles bound: 58
[3]
  IC50: 250 µM
